Data published in US7091038B2, “Ecdysone receptor-based inducible gene expression system” (RheoGene, Inc., priority 2000, dated 2006).

Assays:
[1] = tested on: GAL4EcR + VP16RXR; experiment: Transactivation of reporter gene through switch 1.1 in 3T3 cells; settings: GAL4CfEcRDEF/VP16MmRXRDEF (switch 1.1), 1.0 μM ligand, 48 hr
Description: (§1) In various cellular backgrounds, including mammalian cells, insect ecdysone receptor (EcR) heterodimerizes with retinoid X receptor (RXR) and, upon binding of ligand, transactivates genes under the control of ecdysone response elements. […] The prepared receptor constructs comprise a ligand binding domain of EcR and of RXR or of USP; a DNA binding domain of GAL4 or of EcR; and an activation domain of VP16. The reporter constructs include a reporter gene, luciferase or LacZ, operably linked to a synthetic promoter construct that comprises either GAL4 or EcR/USP binding sites (response elements). Various combinations of these receptor and reporter constructs were cotransfected into CHO, NIH3T3, CV1 and 293 cells.
(§2) The same procedures described for CHO cells were followed for 3T3 cells as well with two modifications. The cells were plated when they reached 50% confluency. 125,000 or 50,000 or 25,000 cells were plated per well of 6- or 12- or 24-well plates respectively.

[2] = tested on: GAL4RXR + VP16CfEcR; experiment: Transactivation of reporter gene through switch 1.3 in 3T3 cells; settings: GAL4MmRXRDEF/VP16CfEcRCDEF (switch 1.3), 1.0 μM ligand
Description: as §1
as §2, with “respectively. […] The ligand treatments were performed as described in the CHO cell section above.” for “respectively.”

[3] = tested on: CfEcR; experiment: Transactivation through CfEcR- versus DmEcR-based switches in mammalian cell lines (Tables 1–4); parameters: species or system Choristoneura fumiferana
Procedure: Cells were harvested 24–48 hr after adding ligands. […] Twenty μl of lysate was assayed.

[4] = tested on: EcR/RXR receptor combinations; experiment: Truncated CfEcR and MmRXR receptor combinations, luciferase reporter in NIH3T3 cells; assay type: cell-based, Choristoneura fumiferana; Mus musculus; settings: 0, 1, 5 or 25 uM ligand for 48 hr, FIGS. 11–14
Procedure: Briefly, polynucleotides encoding EcR or RXR receptors were truncated at the junctions of A/B, C, D, E and F domains and fused to either a GAL4 DNA binding domain encoding polynucleotide (SEQ ID NO: 43) for CfEcR, or a VP16 activation domain encoding polynucleotide (SEQ ID NO: 49) for MmRXR as described in Example 1. The resulting receptor truncation/fusion polypeptides were assayed in NIH3T3 cells. Plasmid pFRLUC (Stratagene) encoding a luciferase polypeptide was used as a reporter gene construct and pTKRL (Promega) encoding a Renilla luciferase polypeptide under the control of the constitutive TK promoter was used to normalize the transfections as described above. The analysis was performed in triplicates and mean luciferase counts were determined as described above. […]

[5] = tested on: CfEcRDEF:MmRXRDEF; experiment: CfEcR-based yeast two-hybrid assay, LacZ reporter pSH118; assay type: cell-based, Choristoneura fumiferana; Mus musculus; settings: yeast strain comprising CfEcRDEF:MmRXRDEF; 0–100 μM ligand for four hours; FIGS. 18 and 19
Description: This construct results in a LexA:CfEcRDEF fusion that is expressed under the GAL1 promoter.
The D, E, and F domains from mouse (Mus musculus) RXR α (“MmRXRDEF”; SEQ ID NO: 22) were fused to a B42 transactivation domain (“B42AD”; SEQ ID NO: 53) and placed under the control of a GAL1 promoter (SEQ ID NO: 73) in pB42AD (CLONTECH). This construct results in a B42AD:MmRXR-DEF fusion that is expressed under the GAL 1 promoter.
A reporter plasmid comprising a β-galactosidase gene (LacZ; SEQ ID NO: 74) under the control of an 8XLexA operon response element (“8XlexAop”; SEQ ID NO: 75) operably linked to a minimal TATAA region from the GAL1 promoter (p8op-lacZ from CLONTECH) was used to monitor inducible gene expression.
Saccharomyces cerevisiae yeast cells (EGY48; CLONTECH) were used in these experiments. Cells were maintained in liquid culture media with the appropriate drop out amino acids. Standard methods for culture and maintenance of the cells were followed. […]
DNA constructs pSH118, CfEcRDEF, and MmRXRA/BCDEF, MmRXRDEF, or […] were transfected into yeast cells. […] A colony from each group of transformants was grown in the liquid culture in the presence of 0, 0.04, 0.2, 1, 5 and 25 μM GS™-E. The reporter activity was measured as described above 4 hours after adding ligand. Total RLUs were calculated and the numbers on the bars of FIG. 16 show maximum fold induction observed for that group (see FIGS. 16 and 17).
The best performing transformed yeast strain from the analysis above comprising CfEcRDEF:MmRXRDEF was used to determine the induction activity of three steroid ligands (20E, PonA, MurA) and four non-steroid ligands (GS™-E, RH2485, RH5992, RH5849) in this yeast-based format. The yeast cells were cultured in the presence of 0, 0.l, 1, 10, 50 and 100 μM ligands for four hours and the reporter activity was measured as described above. Total RLUs were calculated and the numbers on the top of the bars of FIG. 18 show the maximum fold induction for that group (see FIGS. 18 and 19).

| Compound | Mean Fold Induction at 1.0 μM Concentration [1] | Mean Fold Induction at 1.0 μM Concentration [2] | Potency as activator of CfEcR compared to DmEcR [3] | Sensitivity of the EcR/RXR switch to the ligand [4] | Induction of gene expression (relative performance of ligands) [5] |
| --- | --- | --- | --- | --- | --- |
| CC(C)CC[C@@H](O)[C@](C)(O)[C@H]1CC[C@@]2(O)C3=CC(=O)[C@]4(O)C[C@@H](O)[C@@H](O)C[C@]4(C)[C@H]3[C@H](O)C[C@]12C [Muristerone A, reference compound] | 1.0 fold | 1.0 fold | – | – | – |
| Cc1cc(C)cc(C(=O)N(NC(=O)c2ccc3c(c2C)OCCO3)C(C)(C)C)c1 [N-(3,4-(1,2-ethylenedioxy)-2-methylbenzoyl)-N′-(3,5-dimethylbenzoyl)-N′-tert-butylhydrazine] | – | 54 fold | more potent activators of CfEcR as compared to Drosophila melanogaster EcR (DmEcR) | – | – |
| CC(C)CC[C@@H](O)[C@](C)(O)[C@H]1CC[C@@]2(O)C3=CC(=O)[C@@H]4C[C@@H](O)[C@@H](O)C[C@]4(C)[C@H]3CC[C@]12C [Ponasterone A, reference compound] | 1.0 fold | 1.0 fold | – | insensitive | – |
| CC(C)(C)N(NC(=O)c1ccccc1)C(=O)c1ccccc1 [RH5849, N-tert-butyl-N,N′-dibenzoylhydrazine] | – | – | – | – | did not show a significant response |
